Test results from patent US20220218832A1, “POLYMER DRUG” (BIODYNAMIC RESEARCH FOUNDATION, priority 2019, published 2022).

How the values were obtained:
[1] = test system: mouse colon cancer cells (C26); experiment: In vitro cytotoxicity, MTT, mouse colon cancer cells C26 (Test Example 3); format: cell-based; details: ordinary medium containing 0.1% glucose
Description: These C26 cells subcultured intraperitoneally in mice were washed with a MEM medium (centrifugation, 1,500 rpm) and then adjusted the number of cells to 10^5/ml. […] Firstly, the above cells were cultured at a normal oxygen partial pressure for 24 to 30 hours, and then the culture medium [Petri dish, 96 wells] was transferred to a microaerobic conditions, which was made by adding a commercially available oxygen absorber to an anaerobic culture chamber, i.e., a hypoxic agent (oxygen absorber), AnaeroPack—Micro aero generator manufactured by Mitsubishi Gas Chemical Company, Inc., Tokyo, was added into an anaerobic culture chamber to be a microaerobic (hypoxic) oxygen partial pressure (6 to 9%). The sealed chamber used in this test was a medium square jar (3.5 L) manufactured by Sugiyama-Gen Co., Ltd., Tokyo. In this state, the reagents to be examined were added to each medium at a predetermined concentration, and further cultured for 36 hours. After that, the number of living cells was measured by the above MTT method.

[2] = Surface charge (Zeta potential); format: physicochemical; details: deionized water, 20 mg/ml
[3] = test system: Colon cancer C26 cells; experiment: In vitro cytotoxicity under normoxic and hypoxic partial pressures for 48 hours, C26 cells (Test Example 4); format: cell-based, mouse; details: especially under low oxygen partial pressures
Description: (§1) Colon cancer C26 and HeLa cells (1×10^4 cells/well) were seeded in Falcon 96-well culture plates and cultured overnight at 37° C. in Eagle MEM containing 10% FBS under normoxic partial pressure (5% CO2, 95% air) and hypoxic partial pressure (using a hypoxic chamber, pO2 6-8%). […] Finally, cell viability was analyzed by MTT assay.
(§2) C26 and HeLa cells were also cultured as described above (FIGS. 7A and 7B) and treated with glucosamine (G) and SMA-glucosamine (SG). Finally, cell viability was measured by MTT assay.

[4] = pH of lyophilized product dissolved in distilled water; format: physicochemical
[5] = Solubility of lyophilized product in distilled water; format: physicochemical; details: attempted 10 mg/ml solution
[6] = test system: HeLa cells; experiment: In vitro cytotoxicity under normoxic and hypoxic partial pressures for 48 hours, HeLa cells (Test Example 4); format: cell-based; details: especially under low oxygen partial pressures
Description: as §1, §2

[7] = Particle size by dynamic light scattering; format: physicochemical; details: 0.1 M tris-HCl buffer (pH 8.2), 15 mg/ml, 25° C.
Description: Then, each solution was measured at 25° C. by a light scattering apparatus, Model ELSZ⋅2000ZS manufactured by Otsuka Electronics (Photal Inc., Osaka).

[8] = test system: Escherichia coli (E. coli)
Description: (§3) Firstly, in a Falcon plastic plate with 96 wells, 0.1 ml of Mueller-Hinton medium was added to each well, followed by 10 μl of suspension of each bacterium (10^4/well).

[9] = test system: Staphylococcus aureus
Description: as §3

[10] = test system: HeLa cells; details: aerobic conditions, 24 hours drug treatment
Description: The culture of cells was performed in an Eagle MEM medium supplied with 10% fetal calf serum at 37° C. in 95% air/5% CO2. […] After that, the medium was replaced with a fresh medium and the culture was performed for further 24 hours. Then, viable cells was measured by the MTT method.

[11] = 24 hours, 37° C., boric acid equivalent

Row | Molecule | Cytostatic action, rank order [1] | Surface charge (Zeta potential) [2] | Cytotoxicity (cell viability, MTT) [3] | Intrinsic pH in solution of lyophilized product in distilled water [4] | Solubility in distilled water [5] | Cytotoxicity (cell viability, MTT) [6] | Average particle size (dynamic light scattering method) in diameter [7] | Antibacterial activity compared with boric acid [8] | Concentration of boric acid at which antibacterial activity was shown [8, 11] | Antibacterial activity under more anaerobic conditions ([8]; more anaerobic conditions) | Antibacterial activity compared with boric acid [9] | Concentration of boric acid at which antibacterial activity was shown [9, 11] | Antibacterial activity under more anaerobic conditions ([9]; more anaerobic conditions) | Growth of cancer cells (cell viability, MTT) [10]
1 | N[C@H]1C(O)O[C@H](CO)[C@@H](O)[C@@H]1O (stereo partly shown) [glucosamine, reference compound] | strengthened in the order of (A) free glucosamine, (B) SG and (C) SGB |  |  |  |  |  |  |  |  |  |  |  |  | 
2 | SMA-glucosamine conjugate [SG] | strengthened in the order of (A) free glucosamine, (B) SG and (C) SGB | −27 mV | very potent cytotoxicity | 8.5 | poorly soluble | very potent cytotoxicity | 90 ± 3 nm |  |  |  |  |  |  | 
3 | SMA-glucosamine-boric acid complex [SGB] | strengthened in the order of (A) free glucosamine, (B) SG and (C) SGB |  |  |  |  |  |  | stronger antibacterial activity than boric acid | lower than 10 mg/ml | further increased | stronger antibacterial activity than boric acid | lower than 10 mg/ml | further increased | significantly suppressed
